Measurements as given in patent US8088761B2, “Enzyme inhibitors” (Cancer Research Technology Limited, priority 2005, dated 2012).
pIC50: −log10 of the molar value.

Columns and labels:
HCT116 cells = assay: Cell viability assay (MTT) in HCT116 cell line; type: cell-based; details: Homo sapiens, HCT-116, 72 hrs, IC50 range, read-out: HCT116 cell growth inhibition
Summary of the method: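 MTT read-out (4 hrs, 37 °C, DMSO extraction) following 72 hrs of treatment with 0-50 μM Aurora inhibitor. HCT116 cells were plated a day earlier and tested in triplicate; IC50 derived from the curve.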

Aurora-A = biological target: T1, Aurora-A (Homo sapiens, UniProt O14965); assay: Flashplate Aurora A enzyme inhibition assay; type: biochemical; details: Flashplate assay; IC50 range; read-out: Aurora-A inhibition
T1 sequence (O14965 1-403): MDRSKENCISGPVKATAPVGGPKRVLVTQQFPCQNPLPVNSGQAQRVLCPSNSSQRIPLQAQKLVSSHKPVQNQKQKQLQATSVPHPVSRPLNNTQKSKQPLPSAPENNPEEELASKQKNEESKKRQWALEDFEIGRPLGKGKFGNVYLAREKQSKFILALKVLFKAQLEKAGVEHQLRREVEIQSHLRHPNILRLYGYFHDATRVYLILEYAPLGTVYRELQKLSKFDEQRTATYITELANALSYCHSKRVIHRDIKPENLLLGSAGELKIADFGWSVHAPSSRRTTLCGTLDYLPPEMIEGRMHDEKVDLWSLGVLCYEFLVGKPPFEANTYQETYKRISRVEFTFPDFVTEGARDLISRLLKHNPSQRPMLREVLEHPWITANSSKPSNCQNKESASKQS
Summary of the method: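 This is a radiometric Flashplate format: plates were precoated with DTT, and compound (in 2% DMSO) was mixed with kinase buffer (pH 7.5 Tris, MgCl2, NaCl) containing 1 mM MBP, 20 μM ATP and ^33P-ATP. The reaction was started with 250 ng Aurora-A per well and incubated 2 h at RT. It was then stopped by 10 mM sodium pyrophosphate washing, and plates were scintillation-counted.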

SMILES	pIC50 (HCT116 cells)	pIC50 (Aurora-A)
Cn1cncc1CN1CCN(c2c(Br)cnc3[nH]c(-c4ccc(Cn5cccn5)cc4)nc23)CC1 [Example 182, 2-(4-((1H-Pyrazol-1-yl)methyl)phenyl)-6-bromo-7-(4-((1-methyl-1H-imidazol-5-yl)methyl)piperazin-1-yl)-3H-imidazo[4,5-b]pyridine]	5.70 to 6.30	> 6.30
CC(C)(C)OC(=O)NCc1cccc(-c2nc3c(N4CCN(CC(=O)Nc5nccs5)CC4)c(Br)cnc3[nH]2)c1 [Example 11, (3-{6-Bromo-7-[4-(thiazol-2-ylcarbamoylmethyl)-piperazin-1-yl]-3H-imidazo[4,5-b]pyridin-2-yl}-benzyl)-carbamic acid tert-butyl ester]	5.70 to 6.30	> 6.30
Cc1nc(CN2CCN(c3c(Br)cnc4[nH]c(-c5ccc(CN6CCOCC6)cc5)nc34)CC2)cs1 [Example 156, 4-(4-(6-Bromo-7-(4-((2-methylthiazol-4-yl)methyl)piperazin-1-yl)-3H-imidazo[4,5-b]pyridin-2-yl)benzyl)morpholine]	> 6.30	> 6.30
CC(C)(C)OC(=O)NCc1ccc(-c2nc3c(N4CCC(Oc5ccccc5)CC4)c(Br)cnc3[nH]2)cc1 [Example 134, tert-Butyl 4-(6-bromo-7-(4-phenoxypiperidin-1-yl)-3H-imidazo[4,5-b]pyridin-2-yl)benzylcarbamate]	> 6.30	> 6.30
Clc1ccc(CN2CCN(c3c(Br)cnc4[nH]c(-c5ccc(Cn6cccn6)cc5)nc34)CC2)cc1 [Example 85, 2-(4-((1H-Pyrazol-1-yl)methyl)phenyl)-6-bromo-7-(4-(4-chlorobenzyl)piperazin-1-yl)-3H-imidazo[4,5-b]pyridine]	> 6.30	> 6.30
Brc1cnc2[nH]c(-c3ccc(OC4CCNCC4)cc3)nc2c1N1CCN(Cc2cccnc2)CC1 [Example 113, 6-Bromo-2-(4-(piperidin-4-yloxy)phenyl)-7-(4-(pyridin-3-ylmethyl)piperazin-1-yl)-3H-imidazo[4,5-b]pyridine]	> 6.30	> 6.30
CC(c1ccccc1)N1CCN(c2c(Cl)cnc3[nH]c(-c4ccc(N(C)C)cc4)nc23)CC1 (stereo not drawn) [Example 17, 4-(6-chloro-7-(4-(1-phenylethyl)piperazin-1-yl)-3H-imidazo[4,5-b]pyridin-2-yl)-N,N-dimethylaniline]	5.70 to 6.30	> 6.30
O=S1(=O)CCN(c2ccc(-c3nc4c(N5CCN(Cc6cccnc6)CC5)c(Br)cnc4[nH]3)cc2)CC1 [Example 115, 4-(4-(6-Bromo-7-(4-(pyridin-3-ylmethyl)piperazin-1-yl)-3H-imidazo[4,5-b]pyridin-2-yl)phenyl)-1,1-dioxothiomorpholine]	5.70 to 6.30	> 6.30
CC(c1ccccc1)N1CCN(c2c(Br)cnc3[nH]c(-c4ccc(CN5CCOCC5)cc4)nc23)CC1 (stereo not drawn) [Example 70, 6-Bromo-2-(4-morpholin-4-ylmethyl-phenyl)-7-[4-(1-phenyl-ethyl)-piperazin-1-yl]-3H-imidazo[4,5-b]pyridine]	5.70 to 6.30	> 6.30
COc1ccc(-c2nc3c(N4CCN(Cc5ccc(F)cc5)CC4)c(Br)cnc3[nH]2)cc1 [Example 147, 6-Bromo-7-(4-(4-fluorobenzyl)piperazin-1-yl)-2-(4-methoxyphenyl)-3H-imidazo[4,5-b]pyridine]	4.30 to 5.70	> 6.30
COc1ccc(-c2nc3c(N4CCN(CC(C)C)CC4)c(Cl)cnc3[nH]2)cc1 [Example 36, 6-Chloro-7-(4-isobutylpiperazin-1-yl)-2-(4-methoxyphenyl)-3H-imidazo[4,5-b]pyridine]	> 6.30	> 6.30
Cc1nc(CN2CCN(c3c(Br)cnc4[nH]c(-c5ccc(CN6CCNCC6)cc5)nc34)CC2)cs1 [Example 164, 4-((4-(6-Bromo-2-(4-(piperazin-1-ylmethyl)phenyl)-3H-imidazo[4,5-b]pyridin-7-yl)piperazin-1-yl)methyl)-2-methylthiazole]	> 6.30	> 6.30
Fc1ccc(CN2CCN(c3c(Br)cnc4[nH]c(-c5ccc(CN6CCOCC6)cc5)nc34)CC2)cc1 [Example 148, 4-(4-(6-Bromo-7-(4-(4-fluorobenzyl)piperazin-1-yl)-3H-imidazo[4,5-b]pyridin-2-yl)benzyl)morpholine]	5.70 to 6.30	> 6.30
COc1ccc(-c2nc3c(N4CCN(C(C)c5ccncc5)CC4)c(Cl)cnc3[nH]2)cc1 (stereo not drawn) [Example 142, 6-Chloro-2-(4-methoxyphenyl)-7-(4-(1-(pyridin-4-yl)ethyl)piperazin-1-yl)-3H-imidazo[4,5-b]pyridine]	> 6.30	> 6.30
NCc1ccc(-c2nc3c(N4CCC(Cc5ccccc5)CC4)c(Br)cnc3[nH]2)cc1 [Example 133, (4-(7-(4-Benzylpiperidin-1-yl)-6-bromo-3H-imidazo[4,5-b]pyridin-2-yl)phenyl)methanamine]	5.70 to 6.30	> 6.30
CN1CCN(Cc2ccc(-c3nc4c(N5CCN(Cc6cccnc6)CC5)c(Br)cnc4[nH]3)cc2)CC1 [Example 96, 6-Bromo-2-(4-((4-methylpiperazin-1-yl)methyl)phenyl)-7-(4-(pyridin-3-ylmethyl)piperazin-1-yl)-3H-imidazo[4,5-b]pyridine]	5.70 to 6.30	> 6.30
CC(C)(C)OC(=O)NCCc1nc2c(N3CCN(Cc4cccnc4)CC3)c(Br)cnc2[nH]1 [Example 97, tert-Butyl 2-(6-bromo-7-(4-(pyridin-3-ylmethyl)piperazin-1-yl)-3H-imidazo[4,5-b]pyridin-2-yl)ethylcarbamate]	4.30 to 5.70	> 6.30
COc1ccc(-c2nc3c(N4CCN(Cc5cc(C)on5)CC4)c(Br)cnc3[nH]2)cc1 [Example 74, 6-Bromo-2-(4-methoxy-phenyl)-7-[4-(5-methyl-isoxazol-3-ylmethyl)-piperazin-1-yl]-3H-imidazo[4,5-b]pyridine]	> 6.30	> 6.30
CC(c1ccncc1)N1CCN(c2c(Br)cnc3[nH]c(-c4cccc(CN5CCN(C)CC5)c4)nc23)CC1 (stereo not drawn) [Example 95, 6-Bromo-2-(3-((4-methylpiperazin-1-yl)methyl)phenyl)-7-(4-(1-(pyridin-4-yl)ethyl)piperazin-1-yl)-3H-imidazo[4,5-b]pyridine]	5.70 to 6.30	> 6.30

Second part, the compound after the results:

pIC50 (HCT116 cells)	pIC50 (Aurora-A)	SMILES
> 6.30	> 6.30	Brc1cnc2[nH]c(-c3ccc(N4CCNCC4)cc3)nc2c1N1CCN(Cc2cccnc2)CC1 [Example 104, 6-Bromo-2-(4-(piperazin-1-yl)phenyl)-7-(4-(pyridin-3-ylmethyl)piperazin-1-yl)-3H-imidazo[4,5-b]pyridine]
5.70 to 6.30	> 6.30	O=C(CN1CCN(c2c(Cl)cnc3[nH]c(-c4ccc(N5CCC(O)CC5)cc4)nc23)CC1)Nc1nccs1 [Example 184, 2-(4-(6-Chloro-2-(4-(4-hydroxypiperidin-1-yl)phenyl)-3H-imidazo[4,5-b]pyridin-7-yl)piperazin-1-yl)-N-(thiazol-2-yl)acetamide]
5.70 to 6.30	> 6.30	CN(C)Cc1cccc(-c2nc3c(N4CCN(CC(=O)Nc5nccs5)CC4)c(Br)cnc3[nH]2)c1 [Example 13, 2-{4-[6-Bromo-2-(3-dimethylaminomethyl-phenyl)-3H-imidazo[4,5-b]pyridin-7-yl]-piperazin-1-yl}-N-thiazol-2-yl-acetamide]
5.70 to 6.30	> 6.30	Brc1cnc2[nH]c(-c3ccc(-n4ccnc4)cc3)nc2c1N1CCN(Cc2cccnc2)CC1 [Example 109, 2-(4-(1H-Imidazol-1-yl)phenyl)-6-bromo-7-(4-(pyridin-3-ylmethyl)piperazin-1-yl)-3H-imidazo[4,5-b]pyridine]
5.70 to 6.30	> 6.30	Cc1nc(CN2CCN(c3c(Br)cnc4[nH]c(-c5ccc(N6CCOCC6)cc5)nc34)CC2)cs1 [Example 159, 4-(4-(6-Bromo-7-(4-((2-methylthiazol-4-yl)methyl)piperazin-1-yl)-3H-imidazo[4,5-b]pyridin-2-yl)phenyl)morpholine]
> 6.30	> 6.30	Brc1cnc2[nH]c(-c3ccc(N4CCOCC4)cc3)nc2c1N1CCN(Cc2cccnc2)CC1 [Example 102, 4-(4-(6-Bromo-7-(4-(pyridin-3-ylmethyl)piperazin-1-yl)-3H-imidazo[4,5-b]pyridin-2-yl)phenyl)morpholine]
> 6.30	> 6.30	Brc1cnc2[nH]c(-c3cccc(CN4CCOCC4)c3)nc2c1N1CCN(Cc2cccnc2)CC1 [Example 66, 6-Bromo-2-(3-morpholin-4-ylmethyl-phenyl)-7-(4-pyridin-3-ylmethyl-piperazin-1-yl)-3H-imidazo[4,5-b]pyridine]
> 6.30	> 6.30	Cc1nc(CN2CCN(c3c(Cl)cnc4[nH]c(-c5ccc(CN6CCNCC6)cc5)nc34)CC2)cs1 [Example 175, 4-((4-(6-Chloro-2-(4-(piperazin-1-ylmethyl)phenyl)-3H-imidazo[4,5-b]pyridin-7-yl)piperazin-1-yl)methyl)-2-methylthiazole]
